Converted amounts (≈) assume the structure as drawn.
How the values were obtained:
[1] = system: Streptococcus mutans; experiment: Determination of MIC; type: cell-based; settings: against Streptococcus mutans
[2] = system: Streptococcus mutans; experiment: Sucrose dependent cell adherence of Streptococcus mutans; type: cell-based
Excerpt: FIG. 2: Inhibitory effect of the compound on the extent of sucrose dependent cell adherence of Streptococcus mutans. The % cell adherence is the relative amount (%) of adherent cells at different concentrations of the compound as compared to the cells attached in the absence of any compound. Each value is an average of triplicate assays and each bar indicates ±SD (n=3).

[3] = system: Streptococcus mutans biofilm; experiment: Streptococcus mutans biofilm formation; type: cell-based
Description: FIG. 3: Inhibitory effect of the compound on the biofilm formed by Streptococcus mutans. The % biofilm formed is the relative (%) of biofilm formed at different concentrations of the compound as compared to that in the absence of any compound. Each value is an average of triplicate assays and each bar indicates ±SD (n=3)
The biofilm formation was assessed using increasing concentration of the compound. […] As observed in the adherence, the inhibitory effect was also found to be in a dose dependent manner.

[4] = system: Streptococcus mutans biofilm; experiment: Confocal laser scanning microscopy of Streptococcus mutans biofilm; type: cell-based; settings: 78.13 μ/ml, 24 h incubation
Description: FIG. 4: CLSM images of Streptococccus mutans biofilm formed in the presence or absence of the compound after 24 h incubation. The results are expressed as the means ±standard deviations of triplicate assays.
The biofilm of Streptococcus mutans was analyzed under the confocal laser scanning microscope to observe the changes in its morphology as shown in FIG. 4. […] The cells in the treated sample were more spread out and dispersed. Each panel of the image is a representative view of 141.145 μm by 141.145 μm along the xy axis. The xy analysis provides the biofilm surface coverage, while the z-section analyses establish the thickness of the biofilm. The control cells have biofilms that are clumped and less spread along the xy lane, show a thickness of 19.74±0.5 μm. […] The cells wee individually scattered over the surface rather than in any arrangement.

[5] = system: Streptococcus mutans; experiment: Inhibition of acid production (pH of culture medium); type: cell-based
Description: […] At a concentration of 78.13 μg/ml, there is maximum reduction in acid production as is evident by an increase in pH from 4.7 (control) to 7.5.

[6] = system: Streptococcus mutans; experiment: Cell surface hydrophobicity of Streptococcus mutans; type: cell-based; settings: 9.76 μg/ml, compared to untreated condition
Excerpt: FIG. 5: Inhibitory effect of compound on the hyrdophobicity of Streptococcus mutans where all the concentrations were taken in triplicates.
It was shown that the cell surface hydrophobocity of S. mutans is affected following treatment with the compound obtained from Trachyspermum ammi as shown in figure.

[7] = system: crude GTF of Streptococcus mutans; experiment: Inhibition of water insoluble glucan synthesis; type: biochemical; settings: 4.88 μl/ml
Description: FIG. 6: Inhibitory effects of the compound on insoluble glucan synthesis by crude GTF of Streptococcus mutans. The % insoluble glucan synthesis is the relative amount (%) ±SD (n=3)
The influence of different concentrations was assessed for the synthesis of insoluble glucan.

[8] = system: Streptococcus mutans; experiment: Inhibition of acid production (pH of culture medium); type: cell-based; remark: listed apart in the source

Compound: CCCC1CCCC2(CCC)C(=O)CCCC12 (centres unmarked) [the compound, 5,8a-di-1 propyl-octahydronapthalen-1-(2H)-one]
- MIC [1]: 156 µg/mL (≈ 661 µM)
- reduction in adherence ([2]; 9.77 μg/ml): 30%
- least concentration to give at least 50% inhibition of adherence ([2]; sucrose dependent adherence): 39.06 µg/mL
- biofilm formation ([3]; 78.13 μg/ml): inhibited the biofilm formation
- biofilm formation ([3]; 156.25 μg/ml (MIC)): completely inhibited the biofilm formation
- biofilm morphology ([4]; CLSM): complete absence of clumped cells
- thickness of the biofilm ([4]; CLSM z-section): 12.8±0.7 µm
- pH ± SD (after 24 h) ([5]; 2.44 μg/ml): 4.77 ± 1.69
- pH ± SD (after 24 h) ([5]; 4.88 μg/ml): 4.84 ± 1.20
- pH ± SD (after 24 h) ([5]; 9.76 μg/ml): 5.49 ± 1.05
- pH ± SD (after 24 h) ([5]; 19.53 μg/ml): 5.62 ± 1.96
- pH ± SD (after 24 h) ([5]; 39.01 μg/ml): 5.68 ± 6.78
- pH ± SD (after 24 h) ([5]; 78.13 μg/ml): 6.48 ± 5.97
- pH ± SD (after 24 h) ([5]; 156.25 μg/ml): 7.55 ± 2.65
- cell surface hydrophobicity [6]: drastically reduced the cell surface hydrophobicity to more than half
- reduction in the synthesis of insoluble glucan [7]: 25%
- pH ± SD (onset) ([8]; 2.44 μg/ml): 7.28 ± 0.09
- pH ± SD (onset) ([8]; 4.88 μg/ml): 7.24 ± 1.33
- pH ± SD (onset) ([8]; 9.76 μg/ml): 7.33 ± 1.11
- pH ± SD (onset) ([8]; 19.53 μg/ml): 7.38 ± 1.91
- pH ± SD (onset) ([8]; 39.01 μg/ml): 7.43 ± 1.13
- pH ± SD (onset) ([8]; 78.13 μg/ml): 7.43 ± 0.15
- pH ± SD (onset) ([8]; 156.25 μg/ml): 7.38 ± 1.29

— patent US20120178971A1, “Process for Isolation of a Novel Compound 5,8A-DI-1-Propyl 1-Octahydronapthalen-1-(2H) One,Trachyspermum AMI (Ajowan Caraway) Seeds” (ALIGARH MUSLIM UNIVERSITY, priority 2011, published 2012)
